Test results taken from patent US4837228A, “Antiinflammatory and antimicrobial compounds and compositions” (The University of Mississippi, priority 1982, dated 1989).
Values after ≈ are worked out from the molar mass of the structure shown. Values joined by “and” are separate entries in the source; they are usually repeats but may differ in a detail not shown here. Identical values can stand only once. Like-named read-outs stand apart in the source and are kept apart here.

Key:
Type in all cases: cell-based
[1] = test system: Trichophyton mentagrophytes; assay: agar well diffusion assay, T. mentagrophytes; settings: one entry across 48 hr and 72 hr
Procedure: (§1) Both qualitative and quantitative screens were performed. Qualitative screening was accomplished using the agar well diffusion assay technque while quantitative screening was accomplished by the two-fold (broth) serial dilution method to determine the minimum inhibitory concentration (MIC). Innoculation was accomplished with one loop-full of a 1:10 dilution of the 24-hour-old broth culture, (fungal cultures and M.smegmatis more often required 48 to 72 hours of incubation) of the test organisms in sterile water. Streptomycin sulfate was used as a positive control for antibacterial activity while amphitericin B was used as an antifungal positive control. Organisms utilized in the screens included gram-positive, gram-negative, and acid-fast bacteria as well as different types of fungi. […] An intermediate type activity is seen where R is hydrogen. However, where R is lengthened up to C15 a decrease in activity was noted. Total saturation of the two double bonds in the compounds having a methyl side chain lead, in most cases, to an increase in both antifungal and antibacterial activity.

[2] = test system: Pseudomonas aeruginosa; assay: agar well diffusion assay, Ps. aeruginosa; settings: from edge of agar well
Procedure: as §1

[3] = test system: Bacillus subtilis; assay: agar well diffusion assay, B. subtilis; settings: from edge of agar well
Procedure: as §1

[4] = test system: Escherichia coli; assay: agar well diffusion assay, E. coli; settings: from edge of agar well
Procedure: as §1

[5] = test system: Aspergillus niger; assay: agar well diffusion assay, A. niger; settings: from edge of agar well
Procedure: as §1

[6] = test system: Staphylococcus aureus; assay: agar well diffusion assay, S. aureus; settings: from edge of agar well
Procedure: as §1

[7] = test system: Mycobacterium smegmatis; assay: agar well diffusion assay, M. smegmatis; settings: from edge of agar well
Procedure: as §1

[8] = test system: Saccharomyces cerevisiae; assay: agar well diffusion assay, S. cerevisiae; settings: from edge of agar well
Procedure: as §1

[9] = test system: Candida albicans; assay: agar well diffusion assay, C. albicans; settings: from edge of agar well
Procedure: as §1

[10] = test system: Mycobacterium smegmatis; assay: MIC, two-fold (broth) serial dilution, M. smegmatis
Procedure: as §1

[11] = test system: Candida albicans; assay: MIC, two-fold (broth) serial dilution, C. albicans; settings: Candida albicans, read-out: MIC
Procedure: as §1

[12] = test system: erythrocyte (heat-induced hemolysis); assay: erythrocyte membrane stabilization assay (heat-induced erythrocyte hemolysis); settings: Erythrocyte
Procedure: The published procedure (Proc. Soc. Exp. Biol. Med. 1967; 125; 837-842 Brow et al) for in vitro assay for antiinflammatory agents based on stabilization of erythrocytes was used. All compounds were prepared for administration by dissolving in physiologic saline or suspending in 2% ethanol in saline and the pH adjusted to 7.4 The concentrations tested in one series are given in Table 8. Aspirin (ASA) and phenylbutazone were used as positive controls for comparison of activity. Tests using this procedure were successfully and repeatedly using either 40% or 20% RBC suspensions.

[13] = test system: Bacillus subtilis; assay: MIC, two-fold (broth) serial dilution, B. subtilis
Procedure: as §1

[14] = test system: Staphylococcus aureus; assay: MIC, two-fold (broth) serial dilution, S. aureus
Procedure: as §1

[15] = 48 hr, listed as Streptomycin-SO4
[16] = 24 hr, listed as Streptomycin-SO4

In the case of `CCCCCc1cc(O)c2c(c1)OC(C)(CCCC(C)C)CC2` (stereo not shown) [CBC (X), 2-methyl-2(4'-methyl-pentyl)-5-hydroxy-7-pentyl chroman], the “agar well diffusion result in words” value [1] is reported as “No growth”, the “width of inhibition zone” value ([2]; 24 hr) is reported as 1. mm and the “width of inhibition zone” value ([2]; 48 hr) is reported as 1. mm. For the same molecule, the “width of inhibition zone” value ([3]; 24 hr) was 4.0 mm, the “width of inhibition zone” value ([3]; 48 hr) was 4.0 mm and the “width of inhibition zone” value ([4]; 24 hr) was 5. mm. The “width of inhibition zone” value ([4]; 48 hr) was 5. mm, the “width of inhibition zone” value ([5]; 48 hr) was 1. mm and the “width of inhibition zone” value ([5]; 72 hr) was 1. mm. For the same molecule, the “width of inhibition zone” value ([6]; 24 hr) was 13. mm, the “width of inhibition zone” value ([6]; 48 hr) was 13. mm and the “width of inhibition zone” value ([7]; 24 hr) was 7. mm. For the same molecule, the “width of inhibition zone” value ([7]; 48 hr) was 7. mm, the “width of inhibition zone” value ([8]; 48 hr) was 7. mm and the “width of inhibition zone” value ([8]; 72 hr) was 7. mm. The “width of inhibition zone” value ([9]; 48 hr) was 2. mm and the “width of inhibition zone” value ([9]; 72 hr) was 3. mm.
`CCCCCc1cc(O)cc2c1C=CC(C)(CCC=C(C)C)O2` (stereo not shown) [Iso CBC (IX), 2-methyl-2(4'-methyl-pent-3'-enyl)-5-pentyl-7-hydroxy chromene] gave an MIC ([10]; Mycolicibacterium smegmatis, 24 h, read-out: MIC) of 25 µg/mL (≈ 79.5 µM), an MIC ([10]; Mycolicibacterium smegmatis, 48 h, read-out: MIC) of 25 µg/mL (≈ 79.5 µM) and an MIC ([11]; 48 h) of 50 µg/mL (≈ 159 µM). For the same molecule, the MIC ([11]; 72 h) was 100 µg/mL (≈ 318 µM), the inhibition at 100 µM ([12]; read-out: inhibition of heat-induced erythrocyte hemolysis, Table 8, 1 × 10^-4 M) was 75% and the MIC ([13]; Bacillus subtilis, 24 h, read-out: MIC) was 0.78 µg/mL (≈ 2.48 µM). The MIC ([13]; Bacillus subtilis, 48 h, read-out: MIC) was 3.12 µg/mL (≈ 9.92 µM).
For `[H]/N=C(/N)N[C@H]1[C@H](O)[C@@H](O)[C@H](O[C@@H]2O[C@@H](C)[C@](O)(C=O)[C@H]2O[C@@H]2O[C@@H](CO)[C@H](O)[C@@H](O)[C@@H]2NC)[C@@H](N/C(N)=N\[H])[C@@H]1O` [Streptomycin SO4, reference compound], the MIC ([14]; 24 hr) was 3.12 µg/mL (≈ 5.36 µM), the MIC ([14]; 48 hr) was 12.5 µg/mL and 6.25 µg/mL and the MIC [14, 15] was 12.5 µg/mL and 25.0 µg/mL and 25 µg/mL. The “width of inhibition zone” value ([2]; 24 hr) was 3. mm, the “width of inhibition zone” value [2, 16] was 7. mm and the “width of inhibition zone” value ([2]; 48 hr) was 3. mm. The “width of inhibition zone” value [2, 15] was 6. mm, the MIC ([10]; 24 hr) was 1.56 µg/mL (≈ 2.68 µM) and the MIC [10, 16] was 1.56 µg/mL and 0.78 µg/mL. For the same molecule, the MIC ([10]; 48 hr) was 1.56 µg/mL (≈ 2.68 µM), the MIC [10, 15] was 1.56 µg/mL and 0.78 µg/mL and the “width of inhibition zone” value ([3]; 24 hr) was 7. mm. The “width of inhibition zone” value [3, 16] was 11. mm, the “width of inhibition zone” value ([3]; 48 hr) was 8. mm and the “width of inhibition zone” value [3, 15] was 10. mm. The “width of inhibition zone” value ([4]; 24 hr) was 2. mm, the “width of inhibition zone” value [4, 16] was 5. mm and the “width of inhibition zone” value ([4]; 48 hr) was 2. mm. For the same molecule, the “width of inhibition zone” value [4, 15] was 5. mm, the “width of inhibition zone” value ([6]; 24 hr) was 9. mm and the “width of inhibition zone” value [6, 16] was 10. mm. For the same molecule, the “width of inhibition zone” value ([6]; 48 hr) was 9. mm, the “width of inhibition zone” value [6, 15] was 10. mm and the “width of inhibition zone” value ([7]; 24 hr) was 20. mm. For the same molecule, the “width of inhibition zone” value ([7]; 48 hr) was 22. mm, the MIC ([13]; 24 hr) was 3.12 µg/mL (≈ 5.36 µM) and the MIC ([13]; 48 hr) was 25 µg/mL (≈ 43 µM).
`Cc1ccc(C(=O)c2ccc(CC(=O)O)n2C)cc1` [Tolmetin, reference compound] showed an inhibition at 200 µM ([12]; Table 9 Test 1 (20% RBC), 2.0 × 10^-4 M, read-out: percent inhibition of heat-induced erythrocyte hemolysis) of 27%.
